From patent publication US20240316066A1, “COMPOSITION COMPRISING PIP4K2C INHIBITOR AS ACTIVE INGREDIENT FOR TREATMENT OF CANCER” (GWANGJU INSTITUTE OF SCIENCE AND TECHNOLOGY, priority 2021, published 2024) come the findings set out here.

Structures are written as SMILES. “Also recorded” adds a separate entry of the source. Structures can show the parent of a compound that is named as a salt.

Assay type in all cases: cell-based
Data set [1] has as its system SJCRH30 human alveolar rhabdomyosarcoma cells. Description: MTT assay, proliferation of rhabdomyosarcoma cells (SJCRH30). The settings on record: for IC50: Homo sapiens, Rhabdomyosarcoma cell, SJCRH30, 24 hours, MTT, read-out: IC50 (half maximal inhibitory concentration); for cell proliferation (MTT): SJCRH30, 5 μM and 10 μM; for cell killing effect (MTT): SJCRH30, 10 μM. As for the experimental part:
(§1) SJCRH30 human alveolar rhabdomyosarcoma cells were purchased from ATCC. Cells were cultured in RPMI1640 supplemented with 10% fetal bovine serum (FBS), 1% penicillin, and streptomycin. CCD-18Co human colon fibroblasts were purchased from the Korea Cell Line Bank. Cells were cultured in DMEM supplemented with 10% fetal bovine serum (FBS), 1% penicillin, and streptomycin. All cells were cultured in an incubator at 37° C. under 5% CO2.
(§2) Cell proliferation was evaluated through MTT analysis. SJCRH30 and CCD-18Co cells were seeded in triplicate in 96-well plates at a density of 2×10^4 cells per well. After 24 hours, each FDA-approved drug was diluted in fetal bovine serum (FBS)-free medium and the cells were treated therewith. After 24 hours of incubation, the medium was replaced with MTT solution (0.5 mg/mL) and the plates were incubated at 37° C. under 5% CO2. After 60 minutes of incubation, the supernatants were removed and 50 μL of DMSO was added to each well. The optical density in each well was measured at 570 nm using a microplate reader (VersaMax, Molecular Devices, USA).
MTT assay was performed to evaluate the effects of FDA-approved drugs on the proliferation of rhabdomyosarcoma cells (SJCRH30). Rhabdomyosarcoma cells were treated with each of 18 drugs at concentrations of 5 μM and 10 μM, respectively, and observed after 24 hours.
(§3) Rhabdomyosarcoma cells (SJCRH30) and colon fibroblasts (CCD-18Co) were treated with ivacaftor at concentrations of 0.625 μM, 1.25 μM, 2.5 μM, 5 μM, and 10 µM and compared.
MTT assay was performed to compare IC50 (half maximal inhibitory concentration) values of pazopanib HCl, which is used for soft tissue sarcoma patients, and ivacaftor, against rhabdomyosarcoma cells (SJCRH30). Rhabdomyosarcoma cells were treated with each of pazopanib HCl and ivacaftor at concentrations of 0.625 μM, 1.25 μM, 2.5 μM, 5 μM, 10 µM, 20 μM, 40 μM, and 60 µM for 24 hours and then observed.

The test system of data set [2] is pancreatic cancer cells (PANC-1). Description: MTT assay, pancreatic cancer cells (PANC-1). As to conditions: PANC-1, 0.625 μM to 10 µM, 24 hours. As for the experimental part:
as §2
(§4) MTT assay was performed by treating colorectal cancer cells (HCT-116), pancreatic cancer cells (PANC-1), lung cancer cells (A549), and breast cancer cells (MDA-MB-231) with each of ivacaftor and adapalene and treating colorectal cancer cells (HCT-116), pancreatic cancer cells (PANC-1), and lung cancer cells (A549) with dutasteride. The cells were treated with each of the three drugs at concentrations of 0.625 μM, 1.25 μM, 2.5 μM, 5 μM, and 10 µM for 24 hours and then observed.

The subject of another data set is lung cancer cells (A549). The data set is described as follows: MTT assay, lung cancer cells (A549). As to conditions: A549, 0.625 μM to 10 µM, 24 hours. As for the experimental part: as §2, §4
Data set [3] deals with colorectal cancer cells (HCT-116). Description: MTT assay, colorectal cancer cells (HCT-116). As to conditions: HCT-116, 0.625 μM to 10 µM, 24 hours. As for the experimental part: as §2, §4
In data set [4] the test system is breast cancer cells (MDA-MB-231). The data set is described as follows: MTT assay, breast cancer cells (MDA-MB-231). The settings on record: MDA-MB-231, 0.625 μM to 10 µM, 24 hours. As for the experimental part:
as §2, §4

The test system of data set [5] is CCD-18Co human colon fibroblasts. Description: MTT assay, toxicity to normal cells (CCD-18Co). The settings on record: 0.625 μM to 10 µM, all concentrations, 24 hours. As for the experimental part: as §1, §2, §3

Regarding `Cc1ccc(Nc2nccc(N(C)c3ccc4c(C)n(C)nc4c3)n2)cc1S(N)(=O)=O` [pazopanib HCl], the IC50 in data set [1] is 40.9 µM.
Take `C[C@@H](O[C@H]1OCCN(Cc2n[nH]c(=O)[nH]2)[C@H]1c1ccc(F)cc1)c1cc(C(F)(F)F)cc(C(F)(F)F)c1` [aprepitant]: in data set [1] (24 hours), the “cell proliferation (MTT)” value is recorded as “significant decrease in cell proliferation” and the “cell killing effect (MTT)” value is “significant cell killing effect”.
Turning to `C[C@]12C=CC(=O)N[C@@H]1CC[C@@H]1[C@@H]2CC[C@]2(C)[C@@H](C(=O)Nc3cc(C(F)(F)F)ccc3C(F)(F)F)CC[C@@H]12` [dutasteride], the “cell proliferation (MTT)” value in data set [2] is on record as “decrease in cell proliferation”; in the data set on lung cancer cells (A549) it was “decrease in cell proliferation”; in data set [3], “decrease in cell proliferation”; in data set [1] (24 hours) it was “significant decrease in cell proliferation”. For the same compound, in data set [1] (24 hours), the “cell killing effect (MTT)” value is on record as “significant cell killing effect”.
As for `COc1ccc(-c2ccc3cc(C(=O)O)ccc3c2)cc1C12CC3CC(CC(C3)C1)C2` [adapalene], the “cell proliferation (MTT)” value (in data set [2]; in data set [4]; in the data set on lung cancer cells (A549); in data set [3]; in data set [1] (24 hours)) was “significant decrease in cell proliferation” throughout. In data set [1] (24 hours), the “cell killing effect (MTT)” value is given as “significant cell killing effect”.
As to `CC(C)(C)c1cc(C(C)(C)C)c(NC(=O)c2c[nH]c3ccccc3c2=O)cc1O` [ivacaftor], the “cell number (MTT), toxicity to normal cells” value in data set [5] is reported as “no significant decrease in the cell number”. Moreover, the “cell proliferation (MTT)” value is listed as “significant decrease in cell proliferation” in data set [2], “significant decrease in cell proliferation” in data set [4], “significant decrease in cell proliferation” in the data set with lung cancer cells (A549) and “significant decrease in cell proliferation; also recorded: highest effect on cell proliferation reduction” in data set [1] (24 hours). Further, in data set [1], the IC50 is 5.11 µM. Also, in data set [1] (24 hours), the “cell killing effect (MTT)” value is “significant cell killing effect”. Moreover, in data set [1] (SJCRH30, at 1.25 μM, 2.5 μM, 5 μM and 10 μM, 24 hours), the “cell number (MTT)” value is reported as “significant decrease in the cell number”.
